This is an account of results in patent US11912693B2, “Compounds for modulating S1P1 activity and methods of using the same” (TREVENA, INC., priority 2017, dated 2024).

Experiment [1] concerns the target T1, human sphingosine-1-phosphate receptor 1 (S1P1) (Homo sapiens (Human), UniProt P21453). The experiment can be described thus: Inhibition of cAMP production (HTRF cAMP HiRange), S1P1 CHO-K1 cells. The format is cell-based. To be noted: for hS1P1 cAMP SPAN / Emax: efficacy (SPAN) normalized to fingolimod; for Emax: CHO-K1, read-out: hS1P1 cAMP SPAN. The protocol: (§1) Stable clonal Chinese hamster ovary K1 (CHO-K1) cells co-expressing EA-β-arrestin2 and the human sphingosine-1-phosphate receptor 1 (NM_001400, S1P1) with a C-terminal Prolink™ tag were purchased from DiscoverX corporation (Cat #: 93-0207C2).
(§2) Cell lines were cultured in AssayComplete™ Media 6 (DiscoverX Corporation, Cat #: 920018GF2) at 37° C. and 5% CO2 in a humidified CO2 and temperature-controlled incubator. To begin assay plating, cells were washed with dulbecco's phosphate buffered saline (CellGro, Cat #: 21-031-CV) and lifted from the culturing flask by incubation (37° C., 5 min) with CellStripper (Cellgro, Cat #: 25-056-CI). […] Plated cells were incubated overnight at 37° C. and 5% CO2 in a humidified CO2 and temperature-controlled incubator. Detecting Inhibition of cAMP Production
Agonist-promoted G-protein responses were determined by measuring changes in intracellular cAMP using the HTRF® cAMP HiRange kit (CisBio, Cat #: 62AM6PEJ) based on time-resolved fluorescence resonance energy transfer (TR-FRET) technology. […] Following a 30-minute incubation at 37° C. and 5% CO2 in a humidified CO2 and temperature-controlled incubator, the components of the cAMP HiRange kit were added as per the manufacturer's instructions. After an hour incubation at room temperature, plates were analyzed by a BMG PheraStar microplate reader.
(§3) The tables below include the efficacy of the compound as compared to a positive control, referred to as “SPAN”. These values are normalized to fingolimod, a known agonist of the sphingosine-1-phosphate 1 receptor. The tables also include potency values (pEC50) for modulating discrete receptor-mediated activities (inhibition of cAMP production and […] recruitment).
(Cyclic AMP is a second messenger, typically raised through Gs and lowered through Gi signalling.)
Target sequence in this assay (P21453 whole entry, looked up): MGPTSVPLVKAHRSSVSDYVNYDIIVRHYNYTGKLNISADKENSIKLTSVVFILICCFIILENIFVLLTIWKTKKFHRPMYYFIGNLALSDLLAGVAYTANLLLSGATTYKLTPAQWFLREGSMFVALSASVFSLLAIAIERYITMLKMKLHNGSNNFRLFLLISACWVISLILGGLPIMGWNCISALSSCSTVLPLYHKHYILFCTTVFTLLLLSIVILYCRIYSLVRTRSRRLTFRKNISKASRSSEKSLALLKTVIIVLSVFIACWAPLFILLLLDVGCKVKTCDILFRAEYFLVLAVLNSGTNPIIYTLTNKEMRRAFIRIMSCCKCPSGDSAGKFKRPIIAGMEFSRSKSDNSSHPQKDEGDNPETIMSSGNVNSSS

Experiment [2] addresses T1, human sphingosine-1-phosphate receptor 1 (S1P1). The experiment can be described thus: β-Arrestin2 recruitment assay (PathHunter), S1P1 CHO-K1 cells. To be noted: for hS1P1 B-arrestin2 SPAN / Emax: efficacy (SPAN) normalized to fingolimod; for hS1P1 B-arrestin2 pEC50: β-arrestin2 recruitment, S1P1 CHO-K1 cells; for Emax: CHO-K1, read-out: hS1P1 B-arrestin2 SPAN. The format is cell-based. Here is the method: as §1, §2
Target sequence in this assay (P21453 whole entry, looked up): as above
Target sequence in this assay (P32121 whole entry partner, looked up): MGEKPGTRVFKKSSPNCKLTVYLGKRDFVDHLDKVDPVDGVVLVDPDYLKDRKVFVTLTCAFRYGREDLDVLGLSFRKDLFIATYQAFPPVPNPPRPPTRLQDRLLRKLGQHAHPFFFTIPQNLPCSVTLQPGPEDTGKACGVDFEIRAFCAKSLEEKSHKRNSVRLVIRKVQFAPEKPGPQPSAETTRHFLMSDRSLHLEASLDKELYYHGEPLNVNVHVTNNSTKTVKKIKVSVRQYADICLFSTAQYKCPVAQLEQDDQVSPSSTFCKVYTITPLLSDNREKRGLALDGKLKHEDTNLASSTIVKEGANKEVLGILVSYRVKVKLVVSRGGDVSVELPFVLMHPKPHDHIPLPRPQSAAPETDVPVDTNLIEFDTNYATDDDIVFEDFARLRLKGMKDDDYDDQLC
Agonist-promoted β-arrestin2 recruitment to the sphingosine-1-phosphate 1 receptor was determined using the β-arrestin PathHunter®) Detection kit (DiscoverX Corporation, Cat #: 93-0001). […] In cells that stably express these fusion proteins, stimulation with a cognate agonist results in the interaction of […] and the Prolink™-tagged GPCR. This allows the complementation of the two β-galactosidase fragments and results in the formation of a functional enzyme with β-galactosidase activity. […] Following a 60 minute incubation at 37° C. and 5% CO2 in a humidified CO2 and temperature-controlled incubator, the components of the β-arrestin PathHunter® Detection kit were added as per the manufacturer's instructions. After an hour incubation at room temperature, plates were analyzed by a BMG PheraStar microplate reader.
as §3
In general terms: Activated receptors often draw arrestin, which recruitment assays turn into a signal.

Where [3] appears, read: inhibition of cAMP production, S1P1 CHO-K1 cells.

On to “2-(5-(5-(2- chlorophenyl)-1,2,4- oxadiazol-3-yl)-1H- benzo[d][1,2,3]triazol- 1-yl)-2-methylpropan- 1-ol [Compound 618]”, for which, in experiment [1], the “hS1P1 cAMP SPAN” value is given as less than 75. Moreover, the “hS1P1 cAMP pEC50” value in experiment [1] (setting [3]) was less than 6.5. In experiment [2], the “hS1P1 B-arrestin2 SPAN” value is less than 75 and the “hS1P1 B-arrestin2 pEC50” value was greater than 5.

`Fc1cc(-c2noc(-c3ccc4c(c3)nnn4C3CCCC3)n2)ccc1C(F)(F)F` [Compound 1, 1-cyclopentyl-5-{3-[3-fluoro-4-(trifluoromethyl)phenyl]-1,2,4-oxadiazol-5-yl}-1H-1,2,3-benzotriazole]: the “hS1P1 cAMP pEC50” value in experiment [1] (setting [3]) is less than 6.5. The “hS1P1 B-arrestin2 pEC50” value in experiment [2] is recorded as less than 5.

Consider `CCn1nnc2cc(-c3noc(-c4ccccc4Br)n3)ccc21` [Compound 2, 5-(2-bromophenyl)-3-(1-ethyl-1H-benzo[d][1,2,3]triazol-5-yl)-1,2,4-oxadiazole], for which, in experiment [1], the Emax is greater than 75%. Moreover, the EC50 in experiment [1] (inhibition of cAMP production, S1P1 CHO-K1 cells, read-out: hS1P1 cAMP pEC50 (converted)) is greater than 0.316 µM. Besides, in experiment [2], the Emax was less than 75% and the “hS1P1 B-arrestin2 pEC50” value is greater than 5.

With `Cc1ccncc1-c1noc(-c2ccc3nnn(CC(C)C)c3c2)n1` [Compound 3, 1-(2-methylpropyl)-6-[3-(4-methylpyridin-3-yl)-1,2,4-oxadiazol-5-yl]-1H-1,2,3-benzotriazole], in experiment [1] (setting [3]), the “hS1P1 cAMP pEC50” value was greater than 6.5. Besides, in experiment [2], the “hS1P1 B-arrestin2 pEC50” value is reported as greater than 5.

`FC(F)(F)c1cc(-c2noc(-c3ccc4c(c3)nnn4C3CCCC3)n2)ccc1OCc1cccnc1` [Compound 4, 1-cyclopentyl-5-{3-[4-(pyridin-3-ylmethoxy)-3-(trifluoromethyl)phenyl]-1,2,4-oxadiazol-5-yl}-1H-1,2,3-benzotriazole]: the Emax in experiment [1] was less than 75%. In addition, the “hS1P1 cAMP pEC50” value in experiment [1] (setting [3]) is on record as less than 6.5. In addition, in experiment [2], the Emax is less than 75% and the “hS1P1 B-arrestin2 pEC50” value was less than 5.

With `CCCn1nnc2cc(-c3nc(-c4ccc(F)cc4)no3)ccc21` [Compound 5, 5-[3-(4-fluorophenyl)-1,2,4-oxadiazol-5-yl]-1-propyl-1H-1,2,3-benzotriazole], the “hS1P1 cAMP pEC50” value in experiment [1] (setting [3]) is recorded as less than 6.5. Moreover, the “hS1P1 B-arrestin2 pEC50” value in experiment [2] is listed as less than 5.

Consider `Cc1cnc(-c2noc(-c3ccc4c(c3)nnn4C3CCOCC3)n2)cn1` [Compound 6, 5-[3-(5-methylpyrazin-2-yl)-1,2,4-oxadiazol-5-yl]-1-(oxan-4-yl)-1H-1,2,3-benzotriazole], for which the Emax in experiment [1] and in experiment [2] was less than 75% throughout. Moreover, the “hS1P1 cAMP pEC50” value in experiment [1] (setting [3]) is reported as less than 6.5. Further, in experiment [2], the “hS1P1 B-arrestin2 pEC50” value was less than 5.

Take `c1ccc(-c2noc(-c3ccc4c(c3)nnn4C3CCCC3)n2)cc1` [Compound 7, 1-cyclopentyl-5-(3-phenyl-1,2,4-oxadiazol-5-yl)-1H-1,2,3-benzotriazole]: in experiment [1] (setting [3]), the “hS1P1 cAMP pEC50” value was less than 6.5. The “hS1P1 B-arrestin2 pEC50” value in experiment [2] was less than 5.

Turning to `CC(C)n1nnc2cc(-c3nc(-c4ccc(-c5ccccc5)cn4)no3)ccc21` [Compound 9, 5-[3-(5-phenylpyridin-2-yl)-1,2,4-oxadiazol-5-yl]-1-(propan-2-yl)-1H-1,2,3-benzotriazole], the “hS1P1 cAMP pEC50” value in experiment [1] (setting [3]) is given as less than 6.5. Further, the “hS1P1 B-arrestin2 pEC50” value in experiment [2] is less than 5.

Turning to `FC(F)(F)Oc1cccc(-c2nc(-c3ccc4c(c3)nnn4C3CCCC3)no2)c1` [Compound 10, 3-(1-cyclopentyl-1H-benzo[d][1,2,3]triazol-5-yl)-5-(3-(trifluoromethoxy)phenyl)-1,2,4-oxadiazole], the “hS1P1 cAMP SPAN” value in experiment [1] is reported as less than 75. Besides, the “hS1P1 cAMP pEC50” value in experiment [1] (setting [3]) is recorded as less than 6.5. In experiment [2], the “hS1P1 B-arrestin2 SPAN” value was less than 75 and the “hS1P1 B-arrestin2 pEC50” value is less than 5.

As to `Cc1cccc(-c2noc(-c3ccc4c(c3)nnn4C3CCCCC3)n2)c1` [Compound 11, 1-cyclohexyl-5-[3-(3-methylphenyl)-1,2,4-oxadiazol-5-yl]-1H-1,2,3-benzotriazole], the “hS1P1 cAMP pEC50” value in experiment [1] (setting [3]) was less than 6.5. Also, the “hS1P1 B-arrestin2 pEC50” value in experiment [2] is given as less than 5.

Turning to `FC(F)(F)c1cccc(-c2nc(-c3ccc4c(c3)nnn4C3CCCC3)no2)c1` [Compound 12, 3-(1-cyclopentyl-1H-benzo[d][1,2,3]triazol-5-yl)-5-(3-(trifluoromethyl)phenyl)-1,2,4-oxadiazole], the “hS1P1 cAMP pEC50” value in experiment [1] (setting [3]) is less than 6.5. In addition, the “hS1P1 B-arrestin2 pEC50” value in experiment [2] is given as less than 5.

For `Oc1ccc(-c2noc(-c3ccc4c(c3)nnn4C3CCCC3)n2)cc1` [Compound 13, 4-[5-(1-cyclopentyl-1H-1,2,3-benzotriazol-5-yl)-1,2,4-oxadiazol-3-yl]phenol], the “hS1P1 cAMP pEC50” value in experiment [1] (setting [3]) is recorded as greater than 6.5. Further, in experiment [2], the “hS1P1 B-arrestin2 pEC50” value was greater than 5.

As for `CC(C)Oc1ccc(-c2nc(-c3ccc4c(c3)nnn4C3CCCC3)no2)cc1C(F)(F)F` [Compound 14, 3-(1-cyclopentyl-1H-benzo[d][1,2,3]triazol-5-yl)-5-(4-isopropoxy-3-(trifluoromethyl)phenyl)-1,2,4-oxadiazole], the Emax in experiment [1] is less than 75%. Further, the “hS1P1 cAMP pEC50” value in experiment [1] (setting [3]) is given as greater than 6.5. In experiment [2], the Emax is less than 75% and the “hS1P1 B-arrestin2 pEC50” value was greater than 5.

For `CC(C)n1nnc2cc(-c3nc(-c4ccc(Oc5ccccc5)cc4)no3)ccc21` [Compound 15, 5-[3-(4-phenoxyphenyl)-1,2,4-oxadiazol-5-yl]-1-(propan-2-yl)-1H-1,2,3-benzotriazole], in experiment [1] (setting [3]), the “hS1P1 cAMP pEC50” value was less than 6.5. The “hS1P1 B-arrestin2 pEC50” value in experiment [2] is on record as less than 5.

Consider `CSc1ccccc1-c1nc(-c2ccc3c(c2)nnn3C2CCCC2)no1` [Compound 16, 3-(1-cyclopentyl-1H-benzo[d][1,2,3]triazol-5-yl)-5-(2-(methylthio)phenyl)-1,2,4-oxadiazole], for which the “hS1P1 cAMP pEC50” value in experiment [1] (setting [3]) is recorded as less than 6.5. The “hS1P1 B-arrestin2 pEC50” value in experiment [2] is given as greater than 5.

For `CC(C)n1nnc2cc(-c3nc(-c4ccccc4Cl)no3)ccc21` [Compound 17, 5-[3-(2-chlorophenyl)-1,2,4-oxadiazol-5-yl]-1-(propan-2-yl)-1H-1,2,3-benzotriazole], in experiment [1] (setting [3]), the “hS1P1 cAMP pEC50” value is listed as greater than 6.5. Further, in experiment [2], the “hS1P1 B-arrestin2 pEC50” value is listed as greater than 5.

Turning to `CC(C)n1nnc2cc(-c3noc(C4CCC4)n3)ccc21` [Compound 18, 5-(5-cyclobutyl-1,2,4-oxadiazol-3-yl)-1-(propan-2-yl)-1H-1,2,3-benzotriazole], the “hS1P1 cAMP pEC50” value in experiment [1] (setting [3]) is recorded as less than 6.5. Further, the “hS1P1 B-arrestin2 pEC50” value in experiment [2] was less than 5.

Take `CC(C)Oc1ccc(-c2noc(-c3ccc4c(c3)nnn4C(C)C)n2)cc1C(F)(F)F` [Compound 20, 3-(4-isopropoxy-3-(trifluoromethyl)phenyl)-5-(1-isopropyl-1H-benzo[d][1,2,3]triazol-5-yl)-1,2,4-oxadiazole]: the “hS1P1 cAMP pEC50” value in experiment [1] (setting [3]) was greater than 6.5. Further, the “hS1P1 B-arrestin2 pEC50” value in experiment [2] is greater than 5.

As to `CC(C)n1nnc2cc(-c3nc(-c4ccccc4F)co3)ccc21` [Compound 21, 5-[4-(2-fluorophenyl)-1,3-oxazol-2-yl]-1-(propan-2-yl)-1H-1,2,3-benzotriazole], the “hS1P1 cAMP pEC50” value in experiment [1] (setting [3]) is recorded as less than 6.5. Moreover, in experiment [2], the “hS1P1 B-arrestin2 pEC50” value is recorded as less than 5.

Regarding `CC(C)n1nnc2cc(-c3noc(-c4cccc(COc5ccccc5)c4)n3)ccc21` [Compound 23, 3-(1-isopropyl-1H-benzo[d][1,2,3]triazol-5-yl)-5-(3-(phenoxymethyl)phenyl)-1,2,4-oxadiazole], the “hS1P1 cAMP pEC50” value in experiment [1] (setting [3]) is reported as less than 6.5. In addition, in experiment [2], the “hS1P1 B-arrestin2 pEC50” value was less than 5.

In the case of `OCCCn1nnc2cc(-c3noc(-c4ccccc4Br)n3)ccc21` [Compound 24, 3-(5-(5-(2-bromophenyl)-1,2,4-oxadiazol-3-yl)-1H-benzo[d][1,2,3]triazol-1-yl)propan-1-ol], the “hS1P1 cAMP pEC50” value in experiment [1] (setting [3]) is less than 6.5. Further, in experiment [2], the “hS1P1 B-arrestin2 pEC50” value is less than 5.

On to `CC(C)c1ccc(-c2nc(-c3ccc4c(c3)nnn4C(C)C)no2)cn1` [Compound 25, 3-(1-isopropyl-1H-benzo[d][1,2,3]triazol-5-yl)-5-(6-isopropylpyridin-3-yl)-1,2,4-oxadiazole], for which, in experiment [1] (setting [3]), the “hS1P1 cAMP pEC50” value is less than 6.5. For the same molecule, in experiment [2], the “hS1P1 B-arrestin2 pEC50” value is reported as less than 5.

For `CCC1(CC)CC(=O)c2cc(-c3nc(-c4ccncc4)no3)ccc2O1` [Compound 27, 2,2-diethyl-6-[3-(pyridin-4-yl)-1,2,4-oxadiazol-5-yl]-3,4-dihydro-2H-1-benzopyran-4-one], the values for the Emax in experiment [1] and in experiment [2] were greater than 75% and less than 75%, respectively. Moreover, the “hS1P1 cAMP pEC50” value in experiment [1] (setting [3]) is listed as less than 6.5. For the same molecule, the “hS1P1 B-arrestin2 pEC50” value in experiment [2] was greater than 5.
